Reference: ChEMBL document CHEMBL1201862, “PubChem BioAssay data set” (2004)
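Results reflect a 48-hour exposure of cells in 96-well plates to compound at five concentrations. GI50 is the concentration that inhibits growth by half.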 Calls of active or inactive are those of the source. Rule as the data show it: active = GI50 up to about 1.1 µM and inactive = higher.

Key:
Test in all cases: NCI anticancer screen, dose series, 48 h
A549 = tested on: A549
ACHN = tested on: ACHN
CAKI-1 = tested on: CAKI-1
DU-145 = tested on: DU-145
HCC 2998 = tested on: HCC 2998
HT-29 = tested on: HT-29
Hs-578T = tested on: Hs-578T
K562 = tested on: K562
MCF7 = tested on: MCF7
MDA-MB-435 = tested on: MDA-MB-435
OVCAR-8 = tested on: OVCAR-8
RXF 393 = tested on: RXF 393
SF-295 = tested on: SF-295
SK-MEL-2 = tested on: SK-MEL-2
SK-OV-3 = tested on: SK-OV-3
U-251 = tested on: U-251
UACC-257 = tested on: UACC-257
UACC-62 = tested on: UACC-62
BT-549 = tested on: BT-549

| Structure (SMILES) | GI50 (A549) | GI50 (ACHN) | GI50 (CAKI-1) | GI50 (DU-145) | GI50 (HCC 2998) | GI50 (HT-29) | GI50 (Hs-578T) | GI50 (K562) | GI50 (MCF7) | GI50 (MDA-MB-435) | GI50 (OVCAR-8) | GI50 (RXF 393) | GI50 (SF-295) | GI50 (SK-MEL-2) | GI50 (SK-OV-3) | GI50 (U-251) | GI50 (UACC-257) | GI50 (UACC-62) | GI50 (BT-549) |
| --- | --- | --- | --- | --- | --- | --- | --- | --- | --- | --- | --- | --- | --- | --- | --- | --- | --- | --- | --- |
| [N-]=[N+]=Nc1c([N+](=O)[O-])c(=O)n(-c2ccccc2)c2ccccc12 | 38.7 µM (inactive) | 21.7 µM (inactive) | 21.5 µM (inactive) | 35.2 µM (inactive) | 61.5 µM (inactive) | 28.2 µM (inactive) | 20 µM (inactive) | 22.5 µM (inactive) | 20.7 µM (inactive) | 21 µM (inactive) | 20.1 µM (inactive) | 20 µM (inactive) | 27.9 µM (inactive) | 17.9 µM (inactive) | 57.9 µM (inactive) | 20.7 µM (inactive) | 34.4 µM (inactive) | 14.3 µM (inactive) | – |
| Cn1nc(/C=C\C(=O)N2CC(CCl)c3c2cc(N)c2ccccc32)cc1/C=C/C(=O)N1CC(CCl)c2c1cc(N)c1ccccc21 (stereo unspecified) | < 0.01 µM (active) | < 0.01 µM (active) | < 0.01 µM (active) | < 0.01 µM (active) | < 0.01 µM (active) | – | – | < 0.01 µM (active) | < 0.01 µM (active) | < 0.01 µM (active) | < 0.01 µM (active) | < 0.01 µM (active) | < 0.01 µM (active) | < 0.01 µM (active) | < 0.01 µM (active) | < 0.01 µM (active) | 0.0225 µM (active) | < 0.01 µM (active) | < 0.01 µM (active) |
| O=C(COc1ccc(/C=C/C(=O)c2ccc(Cl)cc2)cc1)Nc1c(Cl)cccc1Cl | > 100 µM (inactive) | > 100 µM (inactive) | > 100 µM (inactive) | – | – | > 100 µM (inactive) | – | – | – | – | 51.4 µM (inactive) | 36 µM (inactive) | 68.7 µM (inactive) | – | 58.3 µM (inactive) | 68.2 µM (inactive) | 79.8 µM (inactive) | > 100 µM (inactive) | – |
| CC(C)n1c(=O)c2nn3c(=O)n(C(C)C)c(=O)c3nn2c1=O | > 100 µM (inactive) | > 100 µM (inactive) | > 100 µM (inactive) | > 100 µM (inactive) | > 100 µM (inactive) | > 100 µM (inactive) | > 100 µM (inactive) | – | > 100 µM (inactive) | > 100 µM (inactive) | > 100 µM (inactive) | > 100 µM (inactive) | > 100 µM (inactive) | > 100 µM (inactive) | > 100 µM (inactive) | – | > 100 µM (inactive) | > 100 µM (inactive) | – |
| C=CCNC(=S)NC=C(C(N)=O)C(N)=O | > 100 µM (inactive) | > 100 µM (inactive) | > 100 µM (inactive) | > 100 µM (inactive) | > 100 µM (inactive) | > 100 µM (inactive) | > 100 µM (inactive) | > 100 µM (inactive) | > 100 µM (inactive) | > 100 µM (inactive) | > 100 µM (inactive) | > 100 µM (inactive) | > 100 µM (inactive) | > 100 µM (inactive) | > 100 µM (inactive) | > 100 µM (inactive) | > 100 µM (inactive) | > 100 µM (inactive) | – |
| COc1ccc(-c2nc3ncccn3c2-c2ccc(SC)cc2)cc1 | 2.88 µM (inactive) | 7.57 µM (inactive) | 0.74 µM (active) | – | – | 3.09 µM (inactive) | 1.74 µM (inactive) | 0.869 µM (active) | – | 0.213 µM (active) | 3.92 µM (inactive) | – | 0.989 µM (active) | 1.32 µM (inactive) | 0.439 µM (active) | 2.44 µM (inactive) | > 100 µM (inactive) | 0.916 µM (active) | 1.45 µM (inactive) |
| N#Cc1nc(-c2cnccn2)oc1N | > 100 µM (inactive) | > 100 µM (inactive) | > 100 µM (inactive) | > 100 µM (inactive) | – | > 100 µM (inactive) | > 100 µM (inactive) | > 100 µM (inactive) | > 100 µM (inactive) | > 100 µM (inactive) | > 100 µM (inactive) | > 100 µM (inactive) | – | > 100 µM (inactive) | > 100 µM (inactive) | > 100 µM (inactive) | > 100 µM (inactive) | > 100 µM (inactive) | – |
| O=C(COc1ccc(OCC(=O)N2C(=O)CC(=O)N(c3ccccc3)C2=S)cc1)N1C(=O)CC(=O)N(c2ccccc2)C1=S | 40.4 µM (inactive) | 66.7 µM (inactive) | 0.851 µM (active) | 55.7 µM (inactive) | 97.3 µM (inactive) | 61.2 µM (inactive) | – | 52.1 µM (inactive) | 45.9 µM (inactive) | 76 µM (inactive) | – | 25.5 µM (inactive) | 56.6 µM (inactive) | 43.4 µM (inactive) | 77.4 µM (inactive) | 46.1 µM (inactive) | 82.2 µM (inactive) | 32.2 µM (inactive) | 78.7 µM (inactive) |
| NNC(=O)c1c(-c2cccnc2)cnc2ccccc12 | > 100 µM (inactive) | > 100 µM (inactive) | > 100 µM (inactive) | > 100 µM (inactive) | > 100 µM (inactive) | > 100 µM (inactive) | – | > 100 µM (inactive) | > 100 µM (inactive) | – | > 100 µM (inactive) | > 100 µM (inactive) | > 100 µM (inactive) | > 100 µM (inactive) | 4.02 µM (inactive) | > 100 µM (inactive) | > 100 µM (inactive) | > 100 µM (inactive) | > 100 µM (inactive) |
| Cc1[nH]n(-c2nc3c(c(=O)[nH]2)CCCC3)c(=O)c1CCO | > 100 µM (inactive) | > 100 µM (inactive) | 60 µM (inactive) | > 100 µM (inactive) | > 100 µM (inactive) | > 100 µM (inactive) | > 100 µM (inactive) | > 100 µM (inactive) | > 100 µM (inactive) | > 100 µM (inactive) | > 100 µM (inactive) | > 100 µM (inactive) | > 100 µM (inactive) | > 100 µM (inactive) | > 100 µM (inactive) | > 100 µM (inactive) | > 100 µM (inactive) | > 100 µM (inactive) | – |
| CC(=C\c1ccccc1)/C=C(\C#N)C(N)=O | – | > 10 µM (inactive) | > 10 µM (inactive) | > 10 µM (inactive) | > 10 µM (inactive) | > 10 µM (inactive) | > 10 µM (inactive) | – | > 10 µM (inactive) | > 10 µM (inactive) | > 10 µM (inactive) | > 10 µM (inactive) | > 10 µM (inactive) | > 10 µM (inactive) | > 10 µM (inactive) | > 10 µM (inactive) | – | – | – |
| C=Cc1ccccc1C1(O)C=CC(OC)(OC)C=C1 | 17.3 µM (inactive) | 12.4 µM (inactive) | 5.68 µM (inactive) | 20.4 µM (inactive) | 18.5 µM (inactive) | 3.57 µM (inactive) | 21.4 µM (inactive) | 7.6 µM (inactive) | 2.94 µM (inactive) | 4.36 µM (inactive) | 2.06 µM (inactive) | 4.97 µM (inactive) | 17.8 µM (inactive) | 17.3 µM (inactive) | 13.9 µM (inactive) | 3.66 µM (inactive) | 11.8 µM (inactive) | 4.51 µM (inactive) | – |
| CC(C)C1OC(=O)/C=C/C=C/C=C/C=C/C=C/CC(O)CC(O)CC(O)CC(O)CC(O)CC(O)CC(O)CC(O)/C=C/C1C (stereo unspecified) | > 100 µM (inactive) | > 100 µM (inactive) | > 100 µM (inactive) | > 100 µM (inactive) | > 100 µM (inactive) | > 100 µM (inactive) | – | > 100 µM (inactive) | > 100 µM (inactive) | > 100 µM (inactive) | > 100 µM (inactive) | 73.8 µM (inactive) | > 100 µM (inactive) | > 100 µM (inactive) | – | > 100 µM (inactive) | > 100 µM (inactive) | – | > 100 µM (inactive) |
| COc1ccc(C2=C(OC(C)=O)c3cccn3-c3ccc(Cl)cc3S2)cc1 | 5.51 µM (inactive) | – | 7.19 µM (inactive) | 9.66 µM (inactive) | 5.43 µM (inactive) | 3.75 µM (inactive) | – | 2.4 µM (inactive) | 3.35 µM (inactive) | 2.22 µM (inactive) | 6.53 µM (inactive) | 9.44 µM (inactive) | 3.05 µM (inactive) | – | 6.35 µM (inactive) | – | 4.3 µM (inactive) | 4.48 µM (inactive) | – |
| O=C(CN1CCOCC1)c1ccc2c(c1)oc(=O)n2CCN1CCOCC1 | – | – | > 100 µM (inactive) | > 100 µM (inactive) | – | > 100 µM (inactive) | > 100 µM (inactive) | > 100 µM (inactive) | > 100 µM (inactive) | > 100 µM (inactive) | > 100 µM (inactive) | > 100 µM (inactive) | > 100 µM (inactive) | > 100 µM (inactive) | > 100 µM (inactive) | > 100 µM (inactive) | – | – | – |
| CCOC(=O)C/N=c1\nc(SC)sc2c(C(=O)OCC)nc(Sc3ccccc3)n12 | > 10 µM (inactive) | – | 13.4 µM (inactive) | – | 40.1 µM (inactive) | > 100 µM (inactive) | – | 16.1 µM (inactive) | – | – | 39.3 µM (inactive) | – | – | 58.9 µM (inactive) | > 100 µM (inactive) | – | 28.6 µM (inactive) | > 100 µM (inactive) | – |
| COC(=O)C1CCC(=O)N1CN(C(C)=O)c1ccccc1Cl (stereo unspecified) | > 100 µM (inactive) | > 100 µM (inactive) | > 100 µM (inactive) | > 100 µM (inactive) | > 100 µM (inactive) | > 100 µM (inactive) | > 100 µM (inactive) | > 10 µM (inactive) | > 100 µM (inactive) | > 100 µM (inactive) | > 100 µM (inactive) | > 100 µM (inactive) | > 100 µM (inactive) | > 100 µM (inactive) | > 100 µM (inactive) | > 100 µM (inactive) | > 100 µM (inactive) | > 100 µM (inactive) | – |
